Data: ChEMBL document CHEMBL5518204, “Discovery and Proof of Concept of Potent Dual Polθ/PARP Inhibitors for Efficient Treatment of Homologous Recombination-Deficient Tumors” (J Med Chem, 2024)
Activity calls are given as the source filed them. The calls are words filed in the database; no cut-off is given here.

Experiments:
MDA-MB-436 [1] = experiment: Inhibition of colony formation in human MDA-MB-436 cells at 2 uM incubated for 9 days by crystal violet staining based analysis; type: functional, cell-based; details: time 9.0 day
[2] = biological target: Poly [ADP-ribose] polymerase 2 (Homo sapiens, UniProt Q9UGN5); experiment: Inhibition of PARP2 (unknown origin)
[3] = Metabolic stability in human liver microsome assessed as half life; type: ADME; details: liver microsomes
MDA-MB-231 [4] = experiment: Induction of apoptosis in human MDA-MB-231 cells at 2 uM incubated for 3 days by Annexin V-APC/7-AAD based flow cytometry analysis; type: functional; details: time 3 day
MDA-MB-231 [5] = experiment: Antitumor activity against human MDA-MB-231 cells xenografted in ip dosed BALB/c mouse assessed as increase in gammaH2Ax expression administered for 21 days; type: functional, organism-based; details: dose 20-40 mg/kg, time 21.0 day
MDA-MB-231 [6] = experiment: Antiproliferative activity against 53BP1-knockdown human MDA-MB-231 cells incubated for 24 hrs by MTT assay; type: functional, cell-based
[7] = Metabolic stability in human liver microsome assessed as intrinsic clearance; type: ADME; details: liver microsomes, read-out: CLH
MDA-MB-231 [8] = experiment: Antitumor activity against human MDA-MB-231 cells xenografted in BALB/c mouse assessed as tumor growth inhibition at 25 mg/kg, ip administered for 21 days; type: functional; details: MDA-MB-231, 504 h, time 21 day, read-out: TGI
[9] = Toxicity in BALB/c mouse xenografted with human MDA-MB-231 cells assessed as lung damage at 20 to 40 mg/kg, ip administered for 21 days by H and E staining based analysis; type: organism-based; details: in vivo, 504 h, dose 20-40 mg/kg, time 21 day
DNA polymerase theta [10] = biological target: T1, DNA polymerase theta (Homo sapiens, UniProt O75417); experiment: Inhibition of DNA polymerase theta mediated TMEJ repair activity in HEK293 cells incubated for 24 hrs by Nano-glo luciferase assay; type: cell-based
[11] = biological target: Poly [ADP-ribose] polymerase 1 (Homo sapiens, UniProt P09874); details: dose 10.0 nM, time 90.0 min
MDA-MB-436 [12] = experiment: Antiproliferative activity against BRCA1-deficient human MDA-MB-436 cells assessed as inhibition of cell proliferation incubated for 5 days by MTT assay; type: functional, cell-based; details: MDA-MB-436, 120 h
[13] = Metabolic stability in rat liver microsome assessed as half life; type: ADME; details: liver microsomes
[14] = AUC (0 to infinity) in Sprague-Dawley rat at 1 mg/kg, iv by LC-MS/MS analysis; type: ADME, organism-based; details: in vivo
HCT-116 = experiment: Antiproliferative activity against BRCA2-deficient human HCT-116 cells assessed as inhibition of cell proliferation incubated for 5 days by MTT assay; type: functional, cell-based; details: HCT-116, 120 h
DNA polymerase theta [15] = biological target: T1, DNA polymerase theta; experiment: Inhibition of DNA polymerase theta (unknown origin) ATPase activity incubated for 60 mins in presence of ATP by ADP-glo kinase assay
[16] = MRT (0 to infinity) in Sprague-Dawley rat at 1 mg/kg, iv by LC-MS/MS analysis; type: ADME, organism-based; details: in vivo
HCC1937 = experiment: Antiproliferative activity against BRCA1-deficient human HCC1937 cells assessed as inhibition of cell proliferation incubated for 5 days by MTT assay; type: functional, cell-based; details: HCC1937, 120 h
[17] = Toxicity in BALB/c mouse xenografted with human MDA-MB-231 cells assessed as kidney damage at 20 to 40 mg/kg, ip administered for 21 days by H and E staining based analysis; type: organism-based; details: in vivo, 504 h, dose 20-40 mg/kg, time 21 day
[18] = Apparent volume of distribution in Sprague-Dawley rat at 1 mg/kg, iv by LC-MS/MS analysis; type: ADME, organism-based; details: in vivo, read-out: Vz
SW48 = experiment: Antiproliferative activity against BRCA2-deficient human SW48 cells assessed as inhibition of cell proliferation incubated for 5 days by MTT assay; type: functional, cell-based; details: SW48, 120 h, read-out: IC50
[19] = biological target: T2, Protein mono-ADP-ribosyltransferase TIPARP (Homo sapiens, UniProt Q7Z3E1); experiment: Inhibition of PARP7 (unknown origin)
T2 sequence (Q7Z3E1 whole entry): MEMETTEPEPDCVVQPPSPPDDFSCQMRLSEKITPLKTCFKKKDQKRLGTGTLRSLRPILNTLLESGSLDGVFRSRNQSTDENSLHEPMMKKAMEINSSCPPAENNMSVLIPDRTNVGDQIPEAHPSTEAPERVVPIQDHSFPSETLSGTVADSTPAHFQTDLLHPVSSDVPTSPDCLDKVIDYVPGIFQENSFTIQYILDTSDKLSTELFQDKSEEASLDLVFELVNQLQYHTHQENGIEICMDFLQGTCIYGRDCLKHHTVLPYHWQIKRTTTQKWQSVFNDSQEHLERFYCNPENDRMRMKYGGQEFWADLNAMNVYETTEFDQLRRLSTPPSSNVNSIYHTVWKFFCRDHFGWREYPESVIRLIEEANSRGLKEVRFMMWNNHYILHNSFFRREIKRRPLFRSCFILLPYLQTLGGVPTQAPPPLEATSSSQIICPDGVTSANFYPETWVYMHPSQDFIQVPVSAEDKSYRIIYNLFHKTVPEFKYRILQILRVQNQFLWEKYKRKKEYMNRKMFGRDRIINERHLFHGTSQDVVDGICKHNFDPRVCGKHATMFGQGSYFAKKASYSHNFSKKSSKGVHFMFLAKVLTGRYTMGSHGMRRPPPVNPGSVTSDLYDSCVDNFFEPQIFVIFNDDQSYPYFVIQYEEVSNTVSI

SK-OV-3 = experiment: Antiproliferative activity against BRCA-proficient human SK-OV-3 cells assessed as inhibition of cell proliferation incubated for 5 days by MTT assay; type: functional, cell-based; details: SK-OV-3, 120 h
[20] = Metabolic stability in mouse liver microsome assessed as half life; type: ADME; details: liver microsomes
[21] = Stability in mouse plasma assessed as half life; type: ADME, cell-free
MDA-MB-231 [22] = experiment: Induction of cell cycle arrest in human MDA-MB-231 cells assessed as accumulation of cells at G2/M phase at 2 uM incubated for 3 days by PI staining based flow cytometric analysis; type: functional; details: time 3.0 day
MCF-10A = experiment: Effect on DNA polymerase theta expression in human MCF-10A cells by immunoblotting analysis; type: functional, cell-based
[23] = AUC (0 to t) in Sprague-Dawley rat at 1 mg/kg, iv by LC-MS/MS analysis; type: ADME, organism-based; details: in vivo
[24] = Toxicity in BALB/c mouse xenografted with human MDA-MB-231 cells assessed as heart damage at 20 to 40 mg/kg, ip administered for 21 days by H and E staining based analysis; type: organism-based; details: in vivo, 504 h, dose 20-40 mg/kg, time 21 day
[25] = Antiproliferative activity against human MCF-10A cells assessed as inhibition of cell proliferation incubated for 5 days by MTT assay; type: toxicity, cell-based; details: human, MCF-10A cells
[26] = Stability in rat plasma assessed as half life; type: ADME, cell-free
MDA-MB-231 [27] = experiment: Antitumor activity against human MDA-MB-231 cells xenografted in BALB/c mouse assessed as tumor growth inhibition at 20 mg/kg, ip administered for 21 days; type: functional; details: MDA-MB-231, 504 h, time 21 day, read-out: TGI
[28] = Half life in Sprague-Dawley rat at 1 mg/kg, iv by LC-MS/MS analysis; type: ADME, organism-based; details: in vivo
[29] = Metabolic stability in rat liver microsome assessed as intrinsic clearance; type: ADME; details: liver microsomes, read-out: CLH

T1 sequence (O75417 whole entry): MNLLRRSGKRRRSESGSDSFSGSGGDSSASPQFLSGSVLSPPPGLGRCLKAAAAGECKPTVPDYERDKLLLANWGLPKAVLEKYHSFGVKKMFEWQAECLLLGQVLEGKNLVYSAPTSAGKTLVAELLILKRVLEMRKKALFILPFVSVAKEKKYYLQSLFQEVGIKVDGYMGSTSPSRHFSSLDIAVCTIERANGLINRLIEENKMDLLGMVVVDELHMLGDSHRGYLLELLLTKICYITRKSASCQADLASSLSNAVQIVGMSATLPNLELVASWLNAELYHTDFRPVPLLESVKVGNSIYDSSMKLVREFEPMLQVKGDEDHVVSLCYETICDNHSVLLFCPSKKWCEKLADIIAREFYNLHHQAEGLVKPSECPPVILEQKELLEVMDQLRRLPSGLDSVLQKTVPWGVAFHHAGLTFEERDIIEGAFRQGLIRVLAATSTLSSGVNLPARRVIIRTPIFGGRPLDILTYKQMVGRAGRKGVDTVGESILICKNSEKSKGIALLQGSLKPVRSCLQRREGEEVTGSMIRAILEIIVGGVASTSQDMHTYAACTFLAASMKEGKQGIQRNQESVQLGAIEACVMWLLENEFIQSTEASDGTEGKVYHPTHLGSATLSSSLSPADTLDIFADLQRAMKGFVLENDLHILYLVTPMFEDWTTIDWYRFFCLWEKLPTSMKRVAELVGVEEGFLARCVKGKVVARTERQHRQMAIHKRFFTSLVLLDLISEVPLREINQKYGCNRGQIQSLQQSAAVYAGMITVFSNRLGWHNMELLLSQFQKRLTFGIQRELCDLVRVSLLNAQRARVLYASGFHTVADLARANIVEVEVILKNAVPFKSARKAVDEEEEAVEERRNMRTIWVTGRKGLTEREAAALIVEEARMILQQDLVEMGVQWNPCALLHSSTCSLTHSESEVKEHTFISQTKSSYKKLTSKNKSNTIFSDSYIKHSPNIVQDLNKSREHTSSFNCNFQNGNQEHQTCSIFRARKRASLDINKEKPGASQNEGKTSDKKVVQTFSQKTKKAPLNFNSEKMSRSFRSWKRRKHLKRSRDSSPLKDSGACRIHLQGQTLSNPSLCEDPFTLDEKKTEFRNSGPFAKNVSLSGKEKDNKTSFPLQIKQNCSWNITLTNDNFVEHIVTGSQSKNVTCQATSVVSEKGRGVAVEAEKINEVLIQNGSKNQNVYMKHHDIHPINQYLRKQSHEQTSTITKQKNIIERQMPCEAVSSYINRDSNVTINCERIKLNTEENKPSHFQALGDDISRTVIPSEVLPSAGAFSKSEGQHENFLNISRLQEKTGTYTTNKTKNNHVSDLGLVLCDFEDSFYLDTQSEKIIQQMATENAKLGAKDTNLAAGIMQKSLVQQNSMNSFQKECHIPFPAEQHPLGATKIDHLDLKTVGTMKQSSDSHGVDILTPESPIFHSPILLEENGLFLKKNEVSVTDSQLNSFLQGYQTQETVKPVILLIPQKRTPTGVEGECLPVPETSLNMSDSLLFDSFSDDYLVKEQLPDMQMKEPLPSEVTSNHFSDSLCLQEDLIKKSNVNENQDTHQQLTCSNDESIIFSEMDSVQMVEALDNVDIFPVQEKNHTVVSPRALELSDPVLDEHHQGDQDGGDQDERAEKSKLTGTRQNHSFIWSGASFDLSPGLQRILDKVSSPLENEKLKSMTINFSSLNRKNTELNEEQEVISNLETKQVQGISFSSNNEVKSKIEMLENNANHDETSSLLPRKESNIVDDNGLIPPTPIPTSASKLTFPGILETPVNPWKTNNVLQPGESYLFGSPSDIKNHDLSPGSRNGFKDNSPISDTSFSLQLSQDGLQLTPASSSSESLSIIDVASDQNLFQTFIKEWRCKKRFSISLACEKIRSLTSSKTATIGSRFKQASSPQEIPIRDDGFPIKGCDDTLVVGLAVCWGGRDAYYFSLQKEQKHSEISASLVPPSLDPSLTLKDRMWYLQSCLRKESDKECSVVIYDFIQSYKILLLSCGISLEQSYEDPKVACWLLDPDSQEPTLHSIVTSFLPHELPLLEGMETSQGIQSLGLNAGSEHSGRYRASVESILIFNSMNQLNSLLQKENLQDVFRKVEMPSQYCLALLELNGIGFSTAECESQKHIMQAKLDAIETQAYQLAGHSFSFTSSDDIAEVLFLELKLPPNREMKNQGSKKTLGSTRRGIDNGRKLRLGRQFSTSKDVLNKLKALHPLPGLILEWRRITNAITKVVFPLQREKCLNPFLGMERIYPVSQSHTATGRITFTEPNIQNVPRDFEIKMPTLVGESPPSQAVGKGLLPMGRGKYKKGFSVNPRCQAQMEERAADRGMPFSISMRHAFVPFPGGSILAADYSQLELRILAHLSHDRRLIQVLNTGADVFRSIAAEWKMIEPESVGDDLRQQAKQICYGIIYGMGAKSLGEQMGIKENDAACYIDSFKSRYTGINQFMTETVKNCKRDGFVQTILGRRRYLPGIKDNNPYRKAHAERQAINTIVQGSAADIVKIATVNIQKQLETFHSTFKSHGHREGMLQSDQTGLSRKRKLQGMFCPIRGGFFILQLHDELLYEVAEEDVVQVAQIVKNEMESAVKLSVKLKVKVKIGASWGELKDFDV
Poly [ADP-ribose] polymerase 2, sequence (Q9UGN5 whole entry): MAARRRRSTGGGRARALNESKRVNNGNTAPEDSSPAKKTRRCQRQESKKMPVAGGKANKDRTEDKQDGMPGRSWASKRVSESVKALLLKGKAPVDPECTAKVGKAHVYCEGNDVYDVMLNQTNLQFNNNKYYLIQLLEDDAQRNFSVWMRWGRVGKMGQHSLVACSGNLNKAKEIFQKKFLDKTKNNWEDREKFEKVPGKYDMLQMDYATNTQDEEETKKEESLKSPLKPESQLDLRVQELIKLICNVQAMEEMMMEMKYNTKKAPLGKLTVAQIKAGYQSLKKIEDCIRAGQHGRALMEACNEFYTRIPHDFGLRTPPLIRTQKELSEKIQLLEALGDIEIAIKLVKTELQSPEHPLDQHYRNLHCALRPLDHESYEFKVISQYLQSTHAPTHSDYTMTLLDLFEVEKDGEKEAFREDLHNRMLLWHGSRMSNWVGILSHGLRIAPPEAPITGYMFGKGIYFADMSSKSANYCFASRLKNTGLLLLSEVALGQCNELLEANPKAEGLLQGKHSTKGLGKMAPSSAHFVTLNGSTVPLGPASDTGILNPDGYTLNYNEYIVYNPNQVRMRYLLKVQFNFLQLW
Poly [ADP-ribose] polymerase 1, sequence (P09874 whole entry): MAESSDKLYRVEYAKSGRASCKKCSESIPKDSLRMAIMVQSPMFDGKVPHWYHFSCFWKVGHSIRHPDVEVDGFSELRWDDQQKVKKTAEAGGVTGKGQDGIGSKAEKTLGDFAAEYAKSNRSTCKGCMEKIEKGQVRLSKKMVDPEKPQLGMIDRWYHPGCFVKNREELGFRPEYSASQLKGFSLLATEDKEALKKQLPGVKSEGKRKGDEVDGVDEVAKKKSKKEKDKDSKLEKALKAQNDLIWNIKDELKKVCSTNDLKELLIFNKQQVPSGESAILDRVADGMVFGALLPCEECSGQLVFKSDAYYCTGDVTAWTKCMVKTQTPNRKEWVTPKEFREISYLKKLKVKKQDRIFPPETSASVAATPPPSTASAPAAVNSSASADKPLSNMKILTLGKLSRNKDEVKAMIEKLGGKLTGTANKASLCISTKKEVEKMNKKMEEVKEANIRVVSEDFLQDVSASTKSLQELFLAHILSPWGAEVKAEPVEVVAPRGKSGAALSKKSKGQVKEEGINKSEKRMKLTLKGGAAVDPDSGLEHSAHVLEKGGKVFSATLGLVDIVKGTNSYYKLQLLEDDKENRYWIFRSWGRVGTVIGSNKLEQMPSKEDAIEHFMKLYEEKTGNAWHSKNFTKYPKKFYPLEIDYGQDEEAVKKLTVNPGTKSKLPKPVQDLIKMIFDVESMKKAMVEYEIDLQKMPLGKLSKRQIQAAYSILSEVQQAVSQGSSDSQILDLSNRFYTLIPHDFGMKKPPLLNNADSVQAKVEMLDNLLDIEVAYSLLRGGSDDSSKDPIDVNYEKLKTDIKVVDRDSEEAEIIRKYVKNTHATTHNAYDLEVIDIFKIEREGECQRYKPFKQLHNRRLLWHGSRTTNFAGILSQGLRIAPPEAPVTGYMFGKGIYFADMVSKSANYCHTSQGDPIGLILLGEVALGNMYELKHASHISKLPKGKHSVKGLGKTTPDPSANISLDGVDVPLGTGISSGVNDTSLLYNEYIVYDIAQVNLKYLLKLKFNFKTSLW

SMILES: COc1ccc(Cl)cc1-c1cc(C)ncc1C(=O)Nc1nnc(OCC2CCN(C(=O)c3cc(Cc4n[nH]c(=O)c5ccccc45)ccc3F)CC2)s1
- inhibition (MDA-MB-436 [1]): Active
- IC50 [2]: 0.0023 µM
- half-life [3]: 2.35 min
- Activity (MDA-MB-231 [4]): 26.7%
- Activity (MDA-MB-231 [5]): Dose-Dependent Effect
- Activity (MDA-MB-231 [6]): Active
- CLint scaled [7]: 681 mL/min/kg
- inhibition in vivo at 25 mg/kg (MDA-MB-231 [8]): 54.4%
- Activity [9]: Non-Toxic
- IC50 (DNA polymerase theta [10]): 0.088 µM
- inhibition [11]: 71.1%
- IC50 (MDA-MB-436 [12]): 2.7 µM
- half-life [13]: 3.11 min
- AUC(0-inf) [14]: 738 ng·h/mL
- IC50 (HCT-116): 8.9 µM
- IC50 (DNA polymerase theta [15]): 0.0456 µM
- MRT inf [16]: 36 min
- IC50 (HCC1937): 20.9 µM
- Activity [17]: Non-Toxic
- Vd [18]: 3.97 L/kg
- IC50 (SW48): 2.9 µM
- IC50 [19]: 0.194 µM
- IC50 (SK-OV-3): 18.9 µM
- half-life [20]: 5.1 min
- half-life [21]: 38.5 h
- Activity (MDA-MB-231 [22]): Active
- Activity (MCF-10A): Active
- AUC(0-t) [23]: 724 ng·h/mL
- Activity [24]: Non-Toxic
- IC50 at 5 days [25]: > 80 µM
- half-life [26]: 38.5 h
- inhibition in vivo at 20 mg/kg (MDA-MB-231 [27]): 40.6%
- half-life [28]: 120 min
- CLint scaled [29]: 802 mL/min/kg
